Experimental data as given in patent US20240293416A1, “TREATMENT OF LIVER DISORDERS WITH A THR-ß AGONIST” (Terns Pharmaceuticals, Inc., priority 2021, published 2024).
Marks after values point to notes of the source that are not given here.

Assay: Single ascending dose trial: adverse event and safety monitoring
Format: in vivo, human
Settings: fasted, n = 6
Protocol: A single-ascending dose clinical trial of Compound 1 (potassium salt) was performed.

SMILES: N#Cc1nn(-c2cc(Cl)c(Oc3n[nH]c(=O)c4ccccc34)c(Cl)c2)c(=O)[nH]c1=O [Compound 2]
- AEs by relationship to drug: Not related (single 3 mg dose): 2 (33.3%)
- AEs by relationship to drug: Possibly related (single 3 mg dose): 0
- AEs by relationship to drug: Related (single 3 mg dose): 0
- AEs by relationship to drug: Unlikely related (single 3 mg dose): 0
- Any AE, all CTCAE grades (single 3 mg dose): 2 (33.3%)
- CTCAE Grade 1 (single 3 mg dose): 0
- CTCAE Grade 2 (single 3 mg dose): 0
- CTCAE Grade 3 or higher (single 3 mg dose): 0
- Serious AEs (single 3 mg dose): 0
- AEs by relationship to drug: Not related (single 10 mg dose): 0
- AEs by relationship to drug: Possibly related (single 10 mg dose): 0
- AEs by relationship to drug: Related (single 10 mg dose): 0
- AEs by relationship to drug: Unlikely related (single 10 mg dose): 0
- Any AE, all CTCAE grades (single 10 mg dose): 0
- CTCAE Grade 1 (single 10 mg dose): 0
- CTCAE Grade 2 (single 10 mg dose): 0
- CTCAE Grade 3 or higher (single 10 mg dose): 0
- Serious AEs (single 10 mg dose): 0
- AEs by relationship to drug: Not related (single 30 mg dose): 1 (16.7%)
- AEs by relationship to drug: Possibly related (single 30 mg dose): 1 (16.7%)*
- AEs by relationship to drug: Related (single 30 mg dose): 0
- AEs by relationship to drug: Unlikely related (single 30 mg dose): 0
- Any AE, all CTCAE grades (single 30 mg dose): 2 (33.3%)
- CTCAE Grade 1 (single 30 mg dose): 1 (16.7%)
- CTCAE Grade 2 (single 30 mg dose): 1 (16.7%)
- CTCAE Grade 3 or higher (single 30 mg dose): 0
- Serious AEs (single 30 mg dose): 0
- AEs by relationship to drug: Not related (single 60 mg dose): 0
- AEs by relationship to drug: Possibly related (single 60 mg dose): 0
- AEs by relationship to drug: Related (single 60 mg dose): 0
- AEs by relationship to drug: Unlikely related (single 60 mg dose): 0
- Any AE, all CTCAE grades (single 60 mg dose): 0
- CTCAE Grade 1 (single 60 mg dose): 0
- CTCAE Grade 2 (single 60 mg dose): 0
- CTCAE Grade 3 or higher (single 60 mg dose): 0
- Serious AEs (single 60 mg dose): 0
